Target: Casein kinase II subunit alpha (Homo sapiens, UniProt P68400)
Assay: Radiometric Kinase Assay

Sequence of Casein kinase II subunit alpha (P68400 whole entry): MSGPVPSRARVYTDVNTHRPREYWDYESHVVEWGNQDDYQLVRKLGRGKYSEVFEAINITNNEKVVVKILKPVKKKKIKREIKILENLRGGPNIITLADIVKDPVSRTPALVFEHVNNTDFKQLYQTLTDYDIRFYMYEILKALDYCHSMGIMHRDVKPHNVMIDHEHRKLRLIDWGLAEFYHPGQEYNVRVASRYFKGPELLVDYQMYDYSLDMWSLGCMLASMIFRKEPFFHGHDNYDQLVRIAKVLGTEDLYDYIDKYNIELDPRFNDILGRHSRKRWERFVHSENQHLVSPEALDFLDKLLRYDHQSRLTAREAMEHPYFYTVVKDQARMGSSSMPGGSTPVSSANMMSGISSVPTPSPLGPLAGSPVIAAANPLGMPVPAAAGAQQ

CC(C)COC(=O)c1[nH]c2ccc(F)cc2c1-c1cn(CC2CCN(CCNS(=O)(=O)c3ccc(-c4ccccc4C#N)cc3)CC2)nn1 [US20230278983, Code AB1076]
IC50: 46 nM

From BindingDB's records for patent US20230278983 (Universite Claude Bernard Lyon 1, 2023)
